Experimental data: PMC6509406 (Chembiochem : a European journal of chemical biology, 2018)
“Also recorded” adds a separate entry of the source.

Assays:
[1] = target: DgcA (CC3285) diguanylate cyclase (Caulobacter crescentus, UniProt Q9A3B9); assay: FRET-based DGC activity assay, dose-response; format: biochemical; settings: for Hill coeff: from fitting the concentration-response curves; for remaining DGC activity of the enzyme-inhibitor-substrate complex: compound saturating concentration; for mode of modulation of DgcA activity / binding affinity towards DgcA: in words
[2] = target: mCYPet-YcgR-mYPet c-di-GMP biosensor (PilZ protein YcgR); settings: cited from earlier work; for biosensor FRET response: specificity for c-di-GMP
[3] = IC50 (binding affinity) against DgcA, running text and figure legends
[4] = IC50 ± SD, Table 2, negative and silent allosteric modulators

Compound: O=C(OCC(=O)N1CCCC1=O)c1ccc2ncsc2c1 [Compound 1, [2-oxo-2-(2-oxopyrrolidin-1-yl)ethyl] 1,3-benzothiazole-6-carboxylate]
- IC50 [1, 3]: < 10 µM
- IC50 ([1]; IC50 ± SD, Table 1, 20 nM DgcA, 20 μM GTP, 25 °C, 1% DMSO): 4 ± 0.2 µM
- Hill coeff ([1]; Table 1): 2.34 ± 0.19
- % Activity ESI (DGC activity of the enzyme-substrate-inhibitor complex) ([1]; Table 1, inhibitor saturation): 1.40 ± 0.1%
- remaining DGC activity of the enzyme-inhibitor-substrate complex [1]: 1.4%
- mode of modulation of DgcA activity [1]: complete inhibition; also recorded: complete inhibitor; also recorded: complete negative allosteric modulator

Compound: O=C(OCC(=O)N1CCCC1=O)c1ccc2ncoc2c1 [Compound 1g, 2-oxo-2-(2-oxopyrrolidin-1-yl)ethyl benzo[d]oxazole-6-carboxylate]
- IC50 [1, 4]: 3.1 ± 0.7 µM
- % Activity ESI (DGC activity of the enzyme-substrate-inhibitor complex) ([1]; Table 2, compound saturation): 87.7 ± 4.2%
- Hill coeff ([1]; Table 2): 2.35 ± 0.82
- remaining DGC activity of the enzyme-inhibitor-substrate complex [1]: 87.7%
- mode of modulation of DgcA activity [1]: silent allosteric modulators; also recorded: silent allosteric regulator

Compound: O=C(OCC(=O)N1CCCC1=O)c1ccccc1 [Compound 1h, 2-oxo-2-(2-oxopyrrolidin-1-yl)ethyl benzoate]
- AC50 [1]: 238 ± 72 µM
- % Activity ESI (DGC activity of the enzyme-substrate-inhibitor complex) ([1]; Table 2, compound saturation): 117.9 ± 1.4%
- Hill coeff ([1]; Table 2): 2.02 ± 0.19
- remaining DGC activity of the enzyme-inhibitor-substrate complex [1]: 118%
- mode of modulation of DgcA activity [1]: positive modulators; also recorded: positive allosteric regulator

Compound: Cc1nc2ccc(C(=O)OCC(=O)N3CCCC3=O)cc2s1 [Compound 1i, 2-oxo-2-(2-oxopyrrolidin-1-yl)ethyl 2-methylbenzo[d]thiazole-6-carboxylate]
- IC50 [1, 4]: 52.9 ± 10.7 µM
- % Activity ESI (DGC activity of the enzyme-substrate-inhibitor complex) ([1]; Table 2, compound saturation): 68.1 ± 8.8%
- Hill coeff ([1]; Table 2): 2.72 ± 1.28

Compound: O=C(OCC(=O)N1CCCC1=O)c1ccc2occc2c1 [Compound 1j, 2-Oxo-2-(2-oxopyrrolidin-1-yl)ethyl benzofuran-5-carboxylate]
- IC50 [1, 4]: 4.4 ± 2.2 µM
- % Activity ESI (DGC activity of the enzyme-substrate-inhibitor complex) ([1]; Table 2, compound saturation): 92.2 ± 0.6%
- Hill coeff ([1]; Table 2): 2.05 ± 0.12
- remaining DGC activity of the enzyme-inhibitor-substrate complex [1]: 92.2%
- mode of modulation of DgcA activity [1]: silent allosteric modulators

Compound: O=C(OCC(=O)N1CCCC1=O)c1ccc2[nH]ccc2c1 [Compound 1k, 2-oxo-2-(2-oxopyrrolidin-1-yl)ethyl 1H-indole-5-carboxylate]
- IC50 [1, 4]: 324 ± 39 µM
- % Activity ESI (DGC activity of the enzyme-substrate-inhibitor complex) ([1]; Table 2, compound saturation): 6.3 ± 0.4%
- Hill coeff ([1]; Table 2): 2.37 ± 0.30
- binding affinity towards DgcA [1]: strongly reduced binding affinities
- mode of modulation of DgcA activity [1]: negative modulators

Compound: Cn1ccc2cc(C(=O)OCC(=O)N3CCCC3=O)ccc21 [Compound 1l, 2-oxo-2-(2-oxopyrrolidin-1-yl)ethyl 1-methyl-1H-indole-5-carboxylate]
- IC50 [1, 4]: 300 ± 37.7 µM
- binding affinity towards DgcA [1]: strongly reduced binding affinities
- mode of modulation of DgcA activity [1]: negative modulators

Compound: Cn1cnc2cc(C(=O)OCC(=O)N3CCCC3=O)ccc21 [Compound 1m, 2-oxo-2-(2-oxopyrrolidin-1-yl)ethyl 1-methyl-1H-benzo[d]imidazole-5-carboxylate]
- IC50 [1, 4]: 82.2 ± 14.6 µM
- Hill coeff ([1]; Table 2): 1.52 ± 0.28
- binding affinity towards DgcA [1]: strongly reduced binding affinities
- mode of modulation of DgcA activity [1]: negative modulators

Compound: O=C(OCC(=O)N1CCCC1=O)c1ccc2cnccc2c1 [Compound 1n, 2-oxo-2-(2-oxopyrrolidin-1-yl)ethyl isoquinoline-6-carboxylate]
- IC50 [1, 4]: 179 ± 10.5 µM
- % Activity ESI (DGC activity of the enzyme-substrate-inhibitor complex) ([1]; Table 2, compound saturation): 0.0 ± 2.0%
- Hill coeff ([1]; Table 2): 2.06 ± 0.15
- binding affinity towards DgcA [1]: strongly reduced binding affinities
- mode of modulation of DgcA activity [1]: negative modulators

Compound: O=C(OCC(=O)N1CCCC1=O)c1ccc2nccnc2c1 [Compound 1o, 2-oxo-2-(2-oxopyrrolidin-1-yl)ethyl quinoxaline-6-carboxylate]
- IC50 [1, 4]: 344 ± 19.9 µM
- % Activity ESI (DGC activity of the enzyme-substrate-inhibitor complex) ([1]; Table 2, compound saturation): 0.0 ± 0.7%
- Hill coeff ([1]; Table 2): 2.22 ± 0.16
- binding affinity towards DgcA [1]: strongly reduced binding affinities
- mode of modulation of DgcA activity [1]: negative modulators

Compound: O=C(OCC(=O)N1CCCC1=O)c1ccc2scnc2c1 [Compound 1p, 2-oxo-2-(2-oxopyrrolidin-1-yl)ethyl benzothiazole-5-carboxylate]
- IC50 [1, 3]: 626 µM
- IC50 [1, 4]: 627 ± 49 µM

Compound: CN(C)c1ccc(C(=O)OCC(=O)N2CCCC2=O)cc1 [Compound 1q, 2-oxo-2-(2-oxopyrrolidin-1-yl)ethyl 4-(dimethylamino)benzoate]
- AC50 [1]: 222 ± 85.6 µM
- % Activity ESI (DGC activity of the enzyme-substrate-inhibitor complex) ([1]; Table 2, compound saturation): 176.1 ± 3.3%
- Hill coeff ([1]; Table 2): 2.51 ± 0.68
- remaining DGC activity of the enzyme-inhibitor-substrate complex [1]: 176%
- mode of modulation of DgcA activity [1]: positive modulators

Compound: O=C(OCC(=O)N1CCCC1=O)c1ccc([N+](=O)[O-])cc1 [Compound 1r, 2-oxo-2-(2-oxopyrrolidin-1-yl)ethyl 4-nitrobenzoate]
- AC50 [1]: 55.5 ± 13.6 µM
- % Activity ESI (DGC activity of the enzyme-substrate-inhibitor complex) ([1]; Table 2, compound saturation): 156.4 ± 1.7%
- Hill coeff ([1]; Table 2): 2.01 ± 0.18
- remaining DGC activity of the enzyme-inhibitor-substrate complex [1]: 156%
- mode of modulation of DgcA activity [1]: positive modulators

Compound: O=C(NCC(=O)N1CCCC1=O)c1ccc2ncsc2c1 [Compound 1s, N-(2-oxo-2-(2-oxopyrrolidin-1-yl)ethyl)-benzo[d]thiazole-6-carboxamide]
- IC50 [1, 3]: 31.6 µM
- remaining DGC activity of the enzyme-inhibitor-substrate complex [1]: 48%
- mode of modulation of DgcA activity [1]: partial inhibitor

Compound: CC(OC(=O)c1ccc2ncsc2c1)C(=O)N1CCCC1=O (stereo not drawn) [Compound 1t, 1-oxo-1-(2-oxopyrrolidin-1-yl)propan-2-yl benzo[d]thiazole-6-carboxylate]
- binding affinity towards DgcA [1]: completely abolished binding affinity

Compound: O=C(OCCC(=O)N1CCCC1=O)c1ccc2ncsc2c1 [Compound 1u, 3-oxo-3-(2-oxopyrrolidin-1-yl)propyl benzo[d]thiazole-6-carboxylate]
- binding affinity towards DgcA [1]: completely abolished binding affinity

Compound: Cc1ccc(C)c(OCCCC(=O)Nc2ccc(N3CCOCC3)cc2)c1 [Compound 2, 4-(2,5-dimethylphenoxy)-N-(4-morpholin-4-ylphenyl)butanamide]
- IC50 [1, 3]: < 10 µM
- IC50 ([1]; IC50 ± SD, Table 3, negative and silent allosteric modulators): 6.4 ± 0.5 µM
- % Activity ESI (DGC activity of the enzyme-substrate-inhibitor complex) ([1]; Table 3, compound saturation): 31.4 ± 1.3%
- Hill coeff ([1]; Table 3): 1.36 ± 0.13
- remaining DGC activity of the enzyme-inhibitor-substrate complex [1]: 31.4%
- mode of modulation of DgcA activity [1]: partial inhibitor

Compound: Nc1nc2c(ncn2[C@@H]2O[C@@H]3COP(=O)(O)O[C@H]4[C@@H](O)[C@H](n5cnc6c(=O)[nH]c(N)nc65)O[C@@H]4COP(=O)(O)O[C@H]3[C@H]2O)c(=O)[nH]1 [c-di-GMP, cyclic diguanosine monophosphate]
- Kd ([2]; read-out: binding constant (KD) of the biosensor for c-di-GMP, 25°C): 0.198 µM

Compound: Nc1nc2c(ncn2[C@@H]2O[C@@H]3COP(=O)(O)O[C@H]3[C@H]2O)c(=O)[nH]1 [cyclic GMP]
- biosensor FRET response [2]: no detectable response

Compound: Nc1nc2c(ncn2[C@@H]2O[C@H](COP(=O)(O)OP(=O)(O)OP(=O)(O)O)[C@@H](O)[C@H]2O)c(=O)[nH]1 [guanosine 5-triphosphate]
- biosensor FRET response [2]: no detectable response
